Patent US20180360091A1, “NUTRITIONAL COMPOSITIONS AND INFANT FORMULAS TO PROMOTE MYELINATION IN THE BRAIN” (NESTEC S.A., priority 2015, published 2018)

System: children up to 5 years of age
Experiment: Cross-sectional correlation (GLM) of formula nutrient composition with brain myelination
Type: in vivo, human
Conditions: for Nutritional driver for myelination in the final general linear model: 5 most used formulas, voxel-wise correlations, p<0.05 corrected, inter-variable correlation threshold 0.9
Description: MRI brain scans of infants and children between 0 and 5 years were acquired using a white matter imaging technique. This technique provides a quantitative measure, the Myelin Water Fraction (MWF), which is a surrogate marker of myelin content. When mapped as a function of time across early childhood, myelination trajectories can be generated.
Infant formula composition: six infant formulas fed to infants participating in study were analyzed for their composition/level of myelin-relevant nutrients.
Each infant was scanned using the mcDESPOT (multicomponent Driven Equilibrium Single Pulse Observation of T1 and T2) white matter imaging technique Deoni et al. (Magn. Reson. Med. 2008, 60:1372-1387), which provides a quantitative measure of the myelin water fraction (MWF) at each imaging point throughout the brain. All infants were scanned during natural (i.e. non-sedated) sleep using acoustically-muffled mcDESPOT imaging protocols. Total imaging times ranged from 19 minutes for the youngest toddlers to 24 minutes for the older 4 year-old children.
Following image alignment, non-brain signal removal, and correction for main and transmit magnetic field (B0 and B1) inhomogeneities, a three-pool signal model (comprising the myelin-associated water; intra-extra axonal water; and a non-exchanging free-water pool) was fit to the mcDESPOT data to derive voxel-wise MWF maps.
Each child's map was then non-linearly aligned to a study specific template. White matter masks, corresponding to 5 bilateral regions (frontal, temporal, occipital, parietal, and cerebellar WM) as well as the body, genu, and splenium of the corpus callosum were created from common databases, registered to the common template, and superimposed onto each child's MWF map. Mean values for each region were then determined for each child and used for subsequent developmental analysis and trajectory modeling.
From the cohort described above, children up to 5 years of age that were fed different infant formulas during infancy were included in a large correlation analysis to examine the relationship between formula nutrient composition and brain myelination. The 5 most frequently used formulas in that cohort were analyzed for their nutritional composition. A single general linear model (GLM) was constructed that modeled all quantified nutrients, sphingomyelin, and child age. Voxel-wise correlations were calculated with significance defined as p<0.05 corrected for type 1 error using a cluster based correction approach.
To reduce the number of variables in the model, we examined the inter-variable correlation.

Row | Molecule | Nutritional driver for myelination in the final general linear model | Association with myelination (myelin water fraction) over time in the brain (in particular cerebellum, internal capsule, visual cortex, frontal lobe)
1 | CCCCC/C=C\C/C=C\C/C=C\C/C=C\CCCC(=O)O [ARA, arachidonic acid] | identified drivers | 
2 | [Ca] [Calcium] | identified drivers | 
3 | C[N+](C)(C)CCO [Choline] | identified drivers | 
4 | Nc1nc2ncc(CNc3ccc(C(=O)N[C@@H](CCC(=O)O)C(=O)O)cc3)nc2c(=O)[nH]1 [Folic Acid, folic acid] | identified drivers | 
5 | [Mg] [Magnesium] | identified drivers | 
6 | [P] [Phosphorus] | identified drivers | 
7 | Iron | identified drivers | 
8 | Vitamin B12 | identified drivers | 
9 | Zinc | identified drivers | 
10 | phosphatidyinositol | nutritional drivers for myelination | 
11 | phosphatidylcholine | nutritional drivers for myelination | 
12 | sphingomyelin | nutritional drivers for myelination | significant association with myelination
